Experimental findings from ChEMBL document CHEMBL1138945, “Development of N-4,6-pyrimidine-N-alkyl-N'-phenyl ureas as orally active inhibitors of lymphocyte specific tyrosine kinase” (Bioorg Med Chem Lett, 2006) are described below.

The target in data set [1] is Tyrosine-protein kinase Lck (Homo sapiens, UniProt P06239). In words: Inhibition of Lck.
Data set [2] in a line: Aqueous solubility of the compound. The note with it: buffer. It is filed as physicochemical.
Data set [3] is described as follows: Intrinsic clearance in rat hepatocytes after 1 hr at 1 uM. It is filed as ADME, cell-based, Liver, Hepatocyte.
Data set [4] can be described thus: Cmax in orally dosed rat. The note with it: in vivo, po. Set-up: route oral. It counts as ADME, organism-based.
The nature of data set [5]: Oral bioavailability in rat. It counts as ADME, organism-based. The note with it: in vivo.
The test system of a further data set is Rattus norvegicus. In words: Inhibition of adjuvant-induced hind paw swelling in Lewis rat at 25 mg/kg, po after 7 days relative to control. It counts as functional. The note with it: 168 h.
The next data set relates to Jurkat. In words: Inhibition of IL2 production in Jurkat E6-1 T cell line. It is filed as functional, cell-based. Conditions: Homo sapiens.

As a reminder, the IC50 is the concentration needed to halve the response being measured. A high value points to lower potency. The solubility is how much of the substance goes into solution per volume. One may read the CLint scaled as a measure of how fast metabolising enzymes remove a compound, apart from limits set by blood flow. A high value points to rapid turnover. For orientation: Cmax means the maximum level reached in the sampled fluid or tissue. What is called bioavailability is the share of a dose that reaches the circulation, judged against a reference dose that is usually intravenous. The low end stands for little systemic uptake, the high end for much systemic uptake. For orientation: inhibition in vivo means the percentage by which the read-out fell short of the control.

≈ marks a conversion by molar mass, not a printed value.

Chain of Tyrosine-protein kinase Lck (P06239 whole entry): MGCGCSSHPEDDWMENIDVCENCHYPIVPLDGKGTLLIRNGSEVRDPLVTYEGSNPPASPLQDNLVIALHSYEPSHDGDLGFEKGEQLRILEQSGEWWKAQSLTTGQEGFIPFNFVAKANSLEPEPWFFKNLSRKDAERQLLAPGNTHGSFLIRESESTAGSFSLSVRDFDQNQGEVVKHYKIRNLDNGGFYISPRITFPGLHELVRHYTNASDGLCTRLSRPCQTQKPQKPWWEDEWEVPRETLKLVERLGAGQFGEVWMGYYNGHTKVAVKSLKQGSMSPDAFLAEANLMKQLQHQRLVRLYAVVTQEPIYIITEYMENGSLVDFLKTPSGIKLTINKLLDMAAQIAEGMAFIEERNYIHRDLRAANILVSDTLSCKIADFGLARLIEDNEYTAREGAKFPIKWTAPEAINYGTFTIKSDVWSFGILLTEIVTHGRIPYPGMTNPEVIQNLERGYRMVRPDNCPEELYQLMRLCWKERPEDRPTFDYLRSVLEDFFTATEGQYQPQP

Take `CCN(CC)CCOc1ccc(Nc2cc(N(C)C(=O)Nc3c(Cl)cccc3Cl)ncn2)cc1`: the IC50 is 87 nM in data set [1] and 862 nM with Jurkat. Also, in data set [2], the concentration in solution (solubility) came to 38 µg/mL (≈ 75.5 µM). This compound registered a CLint scaled at 1 µM in data set [3] of 40 mL/min/kg. The highest concentration (Cmax) in data set [4] was 394 ng/mL. Further, in data set [5], the bioavailability was found to be 66%. Moreover, the inhibition in vivo at 25 mg/kg with Rattus norvegicus is 63%.

In data set [1], `CCN(CC)c1ccc(Nc2cc(N(CCCN(C)C)C(=O)Nc3ccccc3Cl)ncn2)cc1` displayed an IC50 of 4490 nM.

Take `CCN(CC)CCOc1ccc(Nc2cc(N(C)C(=O)Nc3cc(NC(=O)c4cc5ccccc5n4C)ccc3C)ncn2)cc1`: the IC50 in data set [1] is 149 nM.

Consider `CCN(CC)CCOc1ccc(Nc2cc(N(C)C(=O)Nc3cc(NC(=O)c4cccc(C(F)(F)F)c4)ccc3C)ncn2)cc1`, for which the figures for the IC50 (in data set [1]; in the data set on Jurkat) were 3 nM and less than 10 nM, respectively. Also, the concentration in solution in data set [2] (solubility) came to 3 µg/mL (≈ 4.72 µM).

`Cc1cccc(Cl)c1NC(=O)N(C)c1cc(Nc2ccc(N3CCOCC3)cc2)ncn1` came in with a half-maximal inhibitory concentration (IC50) in data set [1] of 190 nM.

Take `CCN(CC)CCOc1ccc(Nc2cc(N(C)C(=O)Nc3c(C)cccc3Cl)ncn2)cc1`: the IC50 in data set [1] stood at 28 nM; with Jurkat it was 3100 nM. Further, the concentration in solution in data set [2] (solubility) was 34 µg/mL (≈ 70.4 µM). The compound further displayed an intrinsic metabolic clearance (CLint scaled) at 1 µM in data set [3] of 25 mL/min/kg.

In turn, `CCN(CC)c1ccc(Nc2cc(N(Cc3ccccc3)C(=O)Nc3ccccc3Cl)ncn2)cc1` displayed a half-maximal inhibitory concentration (IC50) in data set [1] greater than 10000 nM.

Consider `CN(C)CCCN(C(=O)Nc1c(Cl)cccc1Cl)c1cc(Nc2ccc(N3CCOCC3)cc2)ncn1`, for which, in data set [1], the IC50 was determined as 155 nM.

As for `CCN(CC)CCOc1ccc(Nc2cc(N(C)C(=O)Nc3cc(O)ccc3C)ncn2)cc1`, the IC50 in data set [1] amounted to 3 nM; in the data set with Jurkat, 64 nM. The compound also yielded a solubility in data set [2] of 41 µg/mL (≈ 88.3 µM). Further, the CLint scaled at 1 µM in data set [3] amounted to 108 mL/min/kg. This compound also yielded a Cmax in data set [4] of 3 ng/mL. In data set [5], the bioavailability came out at 1%.

Take `CN(C(=O)Nc1ccccc1Cl)c1cc(Nc2ccc(F)cc2)ncn1`: 1820 nM corresponded to half-maximal inhibition in data set [1] (IC50).

Take `CN(C(=O)Nc1c(Cl)cccc1Cl)c1cc(Nc2ccc(F)cc2)ncn1`: inhibition in data set [1] was half-maximal at 3860 nM (IC50).

As for `CCN(CC)CCOc1ccc(Nc2cc(N(C)C(=O)Nc3cc(C(=O)Nc4cc(C(C)(C)C)on4)ccc3C)ncn2)cc1`, the results for the IC50 (in data set [1]; with Jurkat) were 4 nM and less than 10 nM, respectively. This compound also returned a solubility in data set [2] of 1 µg/mL (≈ 1.63 µM).

`CCN(CC)CCOc1ccc(Nc2cc(N(C)C(=O)Nc3c(F)cccc3F)ncn2)cc1` yielded an IC50 in data set [1] of 418 nM.

In data set [1], `CCN(CC)CCNc1cc(N(C)C(=O)Nc2c(Cl)cccc2Cl)ncn1` displayed a half-maximal inhibitory concentration (IC50) greater than 10000 nM.

Turning to `CCN(CC)CCOc1ccc(Nc2cc(N(C)C(=O)Nc3cc(C(=O)Nc4cccc(C(F)(F)F)c4)ccc3C)ncn2)cc1`, half-maximal inhibition in data set [1] (IC50) was put at 32 nM.

In data set [1], `CN1CCN(c2ccc(Nc3cc(N(C)C(=O)Nc4c(Cl)cccc4Cl)ncn3)cc2)CC1` registered an IC50 of 6 nM.

The compound `CN(C(=O)Nc1c(Cl)cccc1Cl)c1cc(NC2CCOCC2)ncn1` returned a concentration for half-maximal inhibition (IC50) in data set [1] greater than 10000 nM.

With `CN(C(=O)Nc1c(Cl)cccc1Cl)c1cc(Nc2ccc(N3CCOCC3)cc2)ncn1`, the figures for the 50% inhibitory concentration (IC50) (in data set [1]; in the data set on Jurkat) were 301 nM and 2900 nM, respectively. This compound also came in with a solubility in data set [2] of 3 µg/mL (≈ 6.34 µM). Further, the CLint scaled at 1 µM in data set [3] came out at 48 mL/min/kg. Moreover, the Cmax in data set [4] was 9 ng/mL. This compound also showed a bioavailability in data set [5] of 0%.

Compound `Cc1cccc(Cl)c1NC(=O)N(Cc1ccccc1)c1cc(Nc2ccc(F)cc2)ncn1` registered an IC50 in data set [1] of 1450 nM.

For the compound `CNc1cc(N(CCCN(C)C)C(=O)Nc2c(Cl)cccc2Cl)ncn1`, inhibition in data set [1] was half-maximal at 2350 nM (IC50).

Turning to `Cc1ccc(O)cc1NC(=O)N(C)c1cc(Nc2ccc(N3CCOCC3)cc2)ncn1`, half-maximal inhibition in data set [1] (IC50) was put at 4 nM.

Compound `CCN(CC)CCOc1ccc(Nc2cc(N(C)C(=O)Nc3ccccc3OC)ncn2)cc1` returned an IC50 in data set [1] greater than 10000 nM.

In data set [1], `CCN(CC)CCOc1ccc(Nc2cc(N(C)C(=O)Nc3cc(NC(=O)c4cc5ccccc5s4)ccc3C)ncn2)cc1` gave a concentration for half-maximal inhibition (IC50) of 52 nM.

Consider `CN1CCN(c2ccc(Nc3cc(N(C)C(=O)Nc4ccccc4Cl)ncn3)cc2)CC1`, for which the IC50 in data set [1] was 708 nM.

As to `CCN(CC)CCOc1ccc(Nc2cc(N(CCCN(C)C)C(=O)Nc3c(Cl)cccc3Cl)ncn2)cc1`, in data set [1], 229 nM corresponded to half-maximal inhibition (IC50).

`CCN(CC)c1ccc(Nc2cc(N(CCCN(C)C)C(=O)Nc3c(C)cccc3Cl)ncn2)cc1` returned a concentration for half-maximal inhibition (IC50) in data set [1] of 971 nM.

In turn, `O=C(Nc1c(Cl)cccc1Cl)N(c1ccncc1)c1cc(Nc2ccc(N3CCOCC3)cc2)ncn1` registered a half-maximal inhibitory concentration (IC50) in data set [1] greater than 10000 nM.

For `Cc1cccc(Cl)c1NC(=O)N(C)c1cc(Nc2ccc(N3CCN(C)CC3)cc2)ncn1`, the figures for the half-inhibitory concentration (IC50) (in data set [1]; with Jurkat) were 9 nM and 749 nM, respectively. In data set [2], this compound showed a solubility of 2 µg/mL (≈ 4.29 µM).

`CCN(CC)c1ccc(Nc2cc(N(C)C(=O)Nc3ccccc3Cl)ncn2)cc1` came in with an IC50 in data set [1] of 3130 nM.

Turning to `CCN(CC)CCOc1ccc(Nc2cc(N(C)C(=O)Nc3c(Cl)cccc3C(F)(F)F)ncn2)cc1`, the IC50 in data set [1] turned out to be 96 nM.

In data set [1], `CCN(CC)c1ccc(Nc2cc(N(Cc3ccc(N(C)C)cc3)C(=O)Nc3ccccc3Cl)ncn2)cc1` showed an IC50 greater than 10000 nM.

In data set [1], `CN(C(=O)Nc1c(Cl)cccc1Cl)c1cc(NCCN2CCOCC2)ncn1` gave an IC50 greater than 10000 nM.

Consider `CN1CCN(N(C(=O)Nc2c(Cl)cccc2Cl)c2cc(Nc3ccc(N4CCOCC4)cc3)ncn2)CC1`, for which the IC50 in data set [1] was 230 nM.

As for `CN(C)CCCNc1cc(N(C)C(=O)Nc2c(Cl)cccc2Cl)ncn1`, the half-inhibitory concentration (IC50) in data set [1] stood at 5990 nM.

Turning to `CCN(CC)CCOc1ccc(N(C(=O)Nc2c(Cl)cccc2Cl)c2cc(NC)ncn2)cc1`, in data set [1], the 50% inhibitory concentration (IC50) was greater than 10000 nM.

In data set [1], `CCN(CC)CCOc1ccc(Nc2cc(N(C)C(=O)Nc3cc(OC)ccc3C)ncn2)cc1` displayed a concentration for half-maximal inhibition (IC50) of 2580 nM.

Compound `CN(C(=O)Nc1ccccc1Cl)c1cc(Nc2ccc(N3CCOCC3)cc2)ncn1` gave an IC50 in data set [1] of 4290 nM.
